# From PMC12508063, “Chloroindazole based estrogen receptor β ligands with favorable pharmacokinetics promote functional remyelination and visual recovery” (Scientific Reports, 2025)
# Several values for one entry are separate records, joined by “and”; a condition that tells them apart may be missing. Equal values may be shown once.
# Legend:
# [1] = biological target: T1, ERβ (Homo sapiens, UniProt Q92731); test: ER reporter gene assay in HEK 293 T cells (ER-luciferase reporter); assay type: cell-based; conditions: for Reporter gene assay raw data, ERb: ERb data block (head r19), 4 replicate columns; for ERb reporter gene assay raw data (response): four replicate columns per compound
# T1 construct: expressed in transfected cells; host or cells: HEK 293 T cells
# T1 sequence (Q92731 whole entry, species assumed): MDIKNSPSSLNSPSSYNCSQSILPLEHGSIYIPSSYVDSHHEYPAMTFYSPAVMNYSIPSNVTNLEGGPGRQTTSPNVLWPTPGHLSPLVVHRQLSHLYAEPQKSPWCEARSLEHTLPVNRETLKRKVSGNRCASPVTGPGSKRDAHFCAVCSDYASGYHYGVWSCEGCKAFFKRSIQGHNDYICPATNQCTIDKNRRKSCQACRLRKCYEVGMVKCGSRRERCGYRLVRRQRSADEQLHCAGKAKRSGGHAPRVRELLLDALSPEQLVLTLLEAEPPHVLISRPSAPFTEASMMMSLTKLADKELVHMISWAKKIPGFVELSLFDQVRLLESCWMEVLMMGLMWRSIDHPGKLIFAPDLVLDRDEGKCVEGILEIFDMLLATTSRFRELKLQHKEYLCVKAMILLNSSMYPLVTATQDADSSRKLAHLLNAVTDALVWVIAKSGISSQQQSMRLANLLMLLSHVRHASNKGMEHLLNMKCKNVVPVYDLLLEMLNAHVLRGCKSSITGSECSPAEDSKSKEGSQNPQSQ
# [2] = biological target: T2, ERα (Homo sapiens, UniProt P03372); test: as above; assay type: cell-based; conditions: for Reporter gene assay raw data, ERa: 4 replicate columns
# T2 construct: expressed in transfected cells; host or cells: HEK 293 T cells
# T2 sequence (P03372 1-595): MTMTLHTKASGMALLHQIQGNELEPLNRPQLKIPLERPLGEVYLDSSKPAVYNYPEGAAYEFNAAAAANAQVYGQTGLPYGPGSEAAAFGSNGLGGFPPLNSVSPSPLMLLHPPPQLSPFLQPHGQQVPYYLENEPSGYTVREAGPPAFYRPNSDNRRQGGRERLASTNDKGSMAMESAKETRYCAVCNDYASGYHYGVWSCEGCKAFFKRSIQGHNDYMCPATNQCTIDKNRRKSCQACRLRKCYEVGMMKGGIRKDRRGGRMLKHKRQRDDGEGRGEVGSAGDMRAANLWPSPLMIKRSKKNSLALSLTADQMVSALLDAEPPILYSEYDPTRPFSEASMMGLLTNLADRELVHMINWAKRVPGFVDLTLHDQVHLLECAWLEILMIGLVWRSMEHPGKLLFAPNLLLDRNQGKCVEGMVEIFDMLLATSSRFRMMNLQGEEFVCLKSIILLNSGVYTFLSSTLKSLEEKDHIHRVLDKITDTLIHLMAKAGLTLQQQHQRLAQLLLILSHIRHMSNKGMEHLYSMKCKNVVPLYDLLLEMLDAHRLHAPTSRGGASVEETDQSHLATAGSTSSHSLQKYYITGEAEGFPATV
compound,measurement,setting,value
"CCCc1c(-c2ccc(O)cc2)nn(-c2ccc(O)cc2)c1-c1ccc(O)cc1 [PPT, propylpyrazoletriol]","Reporter gene assay raw data, ERb",[1]; Log M -6,19.5014 and 20.0849 and 23.8882 and 22.6897
same,ERb reporter gene assay raw data (response),[1]; Log M -6,21.485 and 20.205 and 17.3019 and 20.855
same,"Reporter gene assay raw data, ERb",[1]; Log M -6.47756,16.4485 and 15.2513 and 19.8755 and 17.389
same,ERb reporter gene assay raw data (response),[1]; Log M -6.47756,18.9594 and 20.0074 and 15.2776 and 15.7954
same,"Reporter gene assay raw data, ERb",[1]; Log M -6.95468,10.4714 and 10.5487 and 14.4972 and 14.256
same,ERb reporter gene assay raw data (response),[1]; Log M -6.95468,18.4622 and 14.9797 and 13.6041 and 14.8139
same,"Reporter gene assay raw data, ERb",[1]; Log M -7.4318,5.476 and 4.22 and 5.578 and 6.583
same,ERb reporter gene assay raw data (response),[1]; Log M -7.4318,10.9473 and 9.898 and 9.008 and 8.195
same,"Reporter gene assay raw data, ERb",[1]; Log M -7.91009,1.07 and -0.6207 and 3.16 and 0.9592
same,ERb reporter gene assay raw data (response),[1]; Log M -7.91009,6.169 and 4.563 and 6.678 and 4.2739
same,"Reporter gene assay raw data, ERb",[1]; Log M -8.3851,0.7593 and -1.643 and 0.4997 and -2.03
same,ERb reporter gene assay raw data (response),[1]; Log M -8.3851,3.945 and 3.96 and 6.88 and 1.445
same,"Reporter gene assay raw data, ERb",[1]; Log M -8.86328,-0.4322 and -1.466 and 2.716 and -1.501
same,ERb reporter gene assay raw data (response),[1]; Log M -8.86328,5.736 and 3.2685 and 3.216 and 2.057
same,"Reporter gene assay raw data, ERb",[1]; Log M -9.34008,-0.1098 and -1.507 and 1.45 and -0.6901
same,ERb reporter gene assay raw data (response),[1]; Log M -9.34008,3.967 and 2.823 and 2.379 and 1.871
same,"Reporter gene assay raw data, ERb",[1]; Log M -9.81816,-0.5451 and -0.7163 and 0.1509 and -1.511
same,ERb reporter gene assay raw data (response),[1]; Log M -9.81816,1.577 and 2.9115 and 0.9432 and -0.07211
same,"Reporter gene assay raw data, ERb",[1]; Log M -10.2941,-1.084 and -0.1568 and -0.6795 and -0.3425
same,ERb reporter gene assay raw data (response),[1]; Log M -10.2941,1.736 and 0.3306 and 0.3765 and -0.321
same,"Reporter gene assay raw data, ERb",[1]; Log M -10.7721,-1.226 and -1.1541 and -1.046 and -1.761
same,ERb reporter gene assay raw data (response),[1]; Log M -10.7721,-0.8597 and 0.03179 and -1.5452 and -1.38
same,"Reporter gene assay raw data, ERb",[1]; Log M -11.248,-0.3317 and 0.5222 and -1.104 and -1.502
same,ERb reporter gene assay raw data (response),[1]; Log M -11.248,-0.3358 and 0.6884 and 0.7035 and 0.7906
same,ERb reporter gene assay raw data (response),[1]; Log M -13,0.5566 and -0.5566 and 0.8119 and -0.8119
same,"Reporter gene assay raw data, ERa","[2]; Log M -6, first ERa data block (head r2)",86.0824 and 79.2296 and 78.3082 and 79.1573
same,"Reporter gene assay raw data, ERa","[2]; Log M -6, second ERa data block (head r34)",87.9608 and 88.617 and 93.8527 and 87.2476
same,"Reporter gene assay raw data, ERa","[2]; Log M -6.47756, first ERa data block (head r2)",90.8624 and 88.5783 and 89.3316 and 78.0129
same,"Reporter gene assay raw data, ERa","[2]; Log M -6.47756, second ERa data block (head r34)",88.252 and 85.7322 and 87.7049 and 87.7177
same,"Reporter gene assay raw data, ERa","[2]; Log M -6.95468, first ERa data block (head r2)",87.1769 and 84.3715 and 90.3303 and 89.4496
same,"Reporter gene assay raw data, ERa","[2]; Log M -6.95468, second ERa data block (head r34)",95.811 and 91.5253 and 94.4371 and 90.1172
same,"Reporter gene assay raw data, ERa","[2]; Log M -7.4318, first ERa data block (head r2)",90.4114 and 87.987 and 94.8392 and 90.7082
same,"Reporter gene assay raw data, ERa","[2]; Log M -7.4318, second ERa data block (head r34)",106.107 and 97.2934 and 83.08 and 92.8748
same,"Reporter gene assay raw data, ERa","[2]; Log M -7.91009, first ERa data block (head r2)",85.6554 and 95.12 and 98.5558 and 94.3071
same,"Reporter gene assay raw data, ERa","[2]; Log M -7.91009, second ERa data block (head r34)",95.0594 and 87.5842 and 88.9618 and 84.8971
same,"Reporter gene assay raw data, ERa","[2]; Log M -8.3851, first ERa data block (head r2)",92.5458 and 88.4315 and 85.0988 and 85.7612
same,"Reporter gene assay raw data, ERa","[2]; Log M -8.3851, second ERa data block (head r34)",94.3547 and 89.3596 and 80.8197 and 80.3933
same,"Reporter gene assay raw data, ERa","[2]; Log M -8.86328, first ERa data block (head r2)",84.8361 and 86.8057 and 82.3746 and 77.2465
same,"Reporter gene assay raw data, ERa","[2]; Log M -8.86328, second ERa data block (head r34)",85.9296 and 87.1693 and 76.3853 and 76.3319
same,"Reporter gene assay raw data, ERa","[2]; Log M -9.34008, first ERa data block (head r2)",74.7989 and 75.6545 and 77.292 and 82.2909
same,"Reporter gene assay raw data, ERa","[2]; Log M -9.34008, second ERa data block (head r34)",84.5588 and 86.4988 and 76.9768 and 80.3165
same,"Reporter gene assay raw data, ERa","[2]; Log M -9.81816, first ERa data block (head r2)",61.8395 and 65.1501 and 66.4827 and 65.905
same,"Reporter gene assay raw data, ERa","[2]; Log M -9.81816, second ERa data block (head r34)",75.5533 and 73.0444 and 68.3421 and 69.495
same,"Reporter gene assay raw data, ERa","[2]; Log M -10.2941, first ERa data block (head r2)",40.0072 and 40.9439 and 38.9576 and 38.1761
same,"Reporter gene assay raw data, ERa","[2]; Log M -10.2941, second ERa data block (head r34)",46.869 and 47.8915 and 37.7547 and 39.1778
same,"Reporter gene assay raw data, ERa","[2]; Log M -10.7721, first ERa data block (head r2)",19.4359 and 14.8698 and 17.3697 and 15.2983
same,"Reporter gene assay raw data, ERa","[2]; Log M -10.7721, second ERa data block (head r34)",13.881 and 18.514 and 18.2618 and 16.0774
same,"Reporter gene assay raw data, ERa","[2]; Log M -11.248, first ERa data block (head r2)",4.705 and 3.999 and 3.885 and 4.444
same,"Reporter gene assay raw data, ERa","[2]; Log M -11.248, second ERa data block (head r34)",6.356 and 4.574 and 4.487 and 4.951
same,ERa reporter gene assay raw data (response),"[2]; Log M -13, four replicate columns per compound",0.8253 and -0.8253 and 1.478 and -1.478
